Common to all, as to type: cell-based
The target in assay [1] is T1, MRGPRX2 (Homo sapiens, UniProt Q96LB1).
T1 sequence (Q96LB1 1-330): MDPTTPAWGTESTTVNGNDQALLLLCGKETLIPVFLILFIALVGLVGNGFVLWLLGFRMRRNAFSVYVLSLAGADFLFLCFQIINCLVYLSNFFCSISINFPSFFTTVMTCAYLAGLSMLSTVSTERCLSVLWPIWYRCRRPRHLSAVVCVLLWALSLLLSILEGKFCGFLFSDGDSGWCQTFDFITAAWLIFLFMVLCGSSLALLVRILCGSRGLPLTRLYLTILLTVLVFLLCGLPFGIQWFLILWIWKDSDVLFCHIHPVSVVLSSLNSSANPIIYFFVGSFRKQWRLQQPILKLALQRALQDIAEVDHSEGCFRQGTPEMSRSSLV
Description: MRGPRX2 β-Arrestin assay. To be noted: PathHunter CHO-K1 MRGPRX2 β-Arrestin cell line; agonist Cortistatin 14 0.25 μM. Also noted: host or cells: PathHunter CHO-K1. In short, it runs like this: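 PathHunter CHO-K1 cells expressing ProLink-tagged MRGPRX2 and enzyme-acceptor-tagged β-arrestin were preincubated with serially diluted compound 1 h at 37 °C, then stimulated with 0.25 μM cortistatin 14 (final) for 90 min. β-arrestin recruitment was read by luminescence; IC50 from 3- or 4-parameter Hill fits normalised to DMSO and reference antagonist controls.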

The target of assay [2] is T1, MRGPRX2. In words: MRGPRX2 IP1 HTRF assay. Also noted: host or cells: CHO-K1. To be noted: CHO-K1 cells stably expressing human MRGPRX2; IP1 accumulation, agonist Cortistatin 14 1 μM. For orientation: Time-resolved FRET reads energy transfer from a long-lived donor to a nearby acceptor.
For assay [3], the target named is T1, MRGPRX2. Description: MRGPRX2 FLIPR calcium mobilization assay. Also noted: host or cells: CHO-K1. To be noted: CHO-K1 cells stably expressing human MRGPRX2; Ca2+ release, agonist Cortistatin-14 at EC80. In short, it runs like this:
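CHO-K1 cells stably expressing human MRGPRX2, loaded with Calcium 6 dye, pre-incubated 30 min at room temperature with test compound in HBSS/20 mM HEPES pH 7.4. Then challenged with Cortistatin-14 at EC80; baseline-adjusted peak fluorescence over 110 s fitted to a Hill equation for IC50.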
Background: Calcium assays in cells follow changes in intracellular calcium, usually with a dye or a luminescent sensor.

For orientation: IC50 means the midpoint of a concentration-inhibition curve.

In the case of `CNC(=O)N1CCC(CNc2cc(C(F)(F)F)nc3ccc(Cl)cc23)(c2ccc(F)cn2)C1` (stereo not drawn) [Example 49, 3-(((6-Chloro-2-(trifluoromethyl)quinolin-4-yl)amino)methyl)-3-(5-fluoropyridin-2-yl)-N-methylpyrrolidine-1-carboxamide], the IC50 on MRGPRX2 [1], on MRGPRX2 [2] and at MRGPRX2 [3] was 0.1 to 100 nM throughout.

For the molecule `CNC(=O)N1CC(CNc2cc(C(F)(F)F)nc3ccc(Cl)cc23)(n2cccn2)C1` [Example 52, 3-(((6-Chloro-2-(trifluoromethyl)quinolin-4-yl)amino)methyl)-N-methyl-3-(1H-pyrazol-1-yl)azetidine-1-carboxamide], the IC50 at MRGPRX2 [1], at MRGPRX2 [2] and at MRGPRX2 [3] was 0.1 to 100 nM each time.

On to `Fc1ccc(C2(CNc3cc(C(F)(F)F)nc4ccc(Cl)cc34)COCCO2)cc1` (stereo not drawn) [Example 53, 6-Chloro-N-((2-(4-fluorophenyl)-1,4-dioxan-2-yl)methyl)-2-(trifluoromethyl)quinolin-4-amine], for which the IC50 on MRGPRX2 [1], at MRGPRX2 [2] and on MRGPRX2 [3] was 0.1 to 100 nM in each case.

For `NC(=O)N1CC(CNc2cc(C(F)(F)F)nc3cc(F)ccc23)(c2ccc(F)cn2)C1` [Example 59, 3-(((7-Fluoro-2-(trifluoromethyl)quinolin-4-yl)amino)methyl)-3-(5-fluoropyridin-2-yl)azetidine-1-carboxamide], the values for the IC50 at MRGPRX2 [1], on MRGPRX2 [2] and on MRGPRX2 [3] were 100 to 1000 nM, 100 to 1000 nM and 0.1 to 100 nM, respectively.

In the case of `Nc1ccc(N2CCC(CNc3cc(C(F)(F)F)nc4ccc(Cl)cc34)(c3ccccc3)CC2)nn1` [Example 78, N-((1-(6-Aminopyridazin-3-yl)-4-phenylpiperidin-4-yl)methyl)-6-chloro-2-(trifluoromethyl)quinolin-4-amine], the IC50 on MRGPRX2 [1], at MRGPRX2 [2] and at MRGPRX2 [3] was 0.1 to 100 nM each time.

On to `NS(=O)(=O)N1CC(CNc2cc(C(F)(F)F)nc3ccc(Cl)cc23)(c2ccc3ccccc3n2)C1` [Example 80, 3-(((6-Chloro-2-(trifluoromethyl)quinolin-4-yl)amino)methyl)-3-(quinolin-2-yl)azetidine-1-sulfonamide], for which the results for the IC50 on MRGPRX2 [1], on MRGPRX2 [2] and on MRGPRX2 [3] were 100 to 1000 nM, 100 to 1000 nM and 0.1 to 100 nM, respectively.

As to `Cc1csc(C2(CNc3cc(C(F)(F)F)nc4ccc(Cl)cc34)CN(S(N)(=O)=O)C2)n1` [Example 81, 3-(((6-Chloro-2-(trifluoromethyl)quinolin-4-yl)amino)methyl)-3-(4-methylthiazol-2-yl)azetidine-1-sulfonamide], the IC50 at MRGPRX2 [1] fell in the range of 0.1 to 100 nM; on MRGPRX2 [2], 100 to 1000 nM; on MRGPRX2 [3], 0.1 to 100 nM.

Consider `Cn1ncc2cc(C3(CNc4cc(C(F)(F)F)nc5ccc(Cl)cc45)CN(S(N)(=O)=O)C3)ccc21` [Example 82, 3-(((6-Chloro-2-(trifluoromethyl)quinolin-4-yl)amino)methyl)-3-(1-methyl-1H-indazol-5-yl)azetidine-1-sulfonamide], for which the IC50 was in the range of 0.1 to 100 nM at MRGPRX2 [1], 100 to 1000 nM at MRGPRX2 [2] and 0.1 to 100 nM on MRGPRX2 [3].

For the molecule `CNC(=O)N1CC(CNc2cc(C(F)(F)F)nc3ccc(Cl)cc23)(c2ccc3cnn(C)c3c2)C1` [Example 83], the IC50 on MRGPRX2 [1] was in the range of 100 to 1000 nM; at MRGPRX2 [2], 100 to 1000 nM; at MRGPRX2 [3] it was 0.1 to 100 nM.

Turning to `Cn1ncc2ccc(C3(CNc4cc(C(F)(F)F)nc5ccc(Cl)cc45)CN(S(N)(=O)=O)C3)cc21` [Example 84, 3-(((6-Chloro-2-(trifluoromethyl)quinolin-4-yl)amino)methyl)-3-(1-methyl-1H-indazol-6-yl)azetidine-1-sulfonamide], the IC50 on MRGPRX2 [1] lay in the range of 0.1 to 100 nM; on MRGPRX2 [2], 100 to 1000 nM; at MRGPRX2 [3], 0.1 to 100 nM.

For `CNC(=O)N1CC(CNc2cc(C(F)(F)F)nc3ccc(Cl)cc23)(n2cc(Cl)cn2)C1` [Example 98, 3-(4-Chloro-1H-pyrazol-1-yl)-3-(((6-chloro-2-(trifluoromethyl)quinolin-4-yl)amino)methyl)-N-methylazetidine-1-carboxamide], the IC50 on MRGPRX2 [1], on MRGPRX2 [2] and on MRGPRX2 [3] was 0.1 to 100 nM in each case.

For `CNC(=O)N1CC(CNc2cc(C(F)(F)F)nc3ccc(Cl)cc23)(n2cc(Br)cn2)C1` [Example 99, 3-(4-Bromo-1H-pyrazol-1-yl)-3-(((6-chloro-2-(trifluoromethyl)quinolin-4-yl)amino)methyl)-N-methylazetidine-1-carboxamide], the IC50 on MRGPRX2 [1], on MRGPRX2 [2] and on MRGPRX2 [3] was 0.1 to 100 nM in each case.

Turning to `O=C(NC1CC(O)C1)N1CC(CNc2cc(C(F)(F)F)nc3ccc(Cl)cc23)(n2cc(F)cn2)C1` (stereo not drawn) [Example 106, 3-(((6-Chloro-2-(trifluoromethyl)quinolin-4-yl)amino)methyl)-3-(4-fluoro-1H-pyrazol-1-yl)-N-(3-hydroxycyclobutyl)azetidine-1-carboxamide], the IC50 on MRGPRX2 [1], at MRGPRX2 [2] and at MRGPRX2 [3] was 0.1 to 100 nM each time.

Consider `O=C(NC1CCC1)N1CC(CNc2cc(C(F)(F)F)nc3ccc(Cl)cc23)(n2cc(F)cn2)C1` [Example 107, 3-(((6-Chloro-2-(trifluoromethyl)quinolin-4-yl)amino)methyl)-N-cyclobutyl-3-(4-fluoro-1H-pyrazol-1-yl)azetidine-1-carboxamide], for which the IC50 on MRGPRX2 [1], on MRGPRX2 [2] and at MRGPRX2 [3] was 0.1 to 100 nM each time.

Turning to `O=C1NC(=O)C2(CC(CNc3cc(C(F)(F)F)nc4ccc(Cl)cc34)(c3ccccc3)C2)N1` (stereo not drawn) [Example 108, 2-(((6-Chloro-2-(trifluoromethyl)quinolin-4-yl)amino)methyl)-2-phenyl-5,7-diazaspiro[3.4]octane-6,8-dione], the IC50 on MRGPRX2 [1], on MRGPRX2 [2] and at MRGPRX2 [3] was 0.1 to 100 nM each time.

In the case of `[2H]C([2H])([2H])NC(=O)N1CC(CNc2cc(C(F)(F)F)nc3ccc(Cl)cc23)(n2ccc(F)n2)C1` [Example 109, 3-(((6-Chloro-2-(trifluoromethyl)quinolin-4-yl)amino)methyl)-3-(3-fluoro-1H-pyrazol-1-yl)-N-(methyl-d3)azetidine-1-carboxamide], the IC50 at MRGPRX2 [1], at MRGPRX2 [2] and on MRGPRX2 [3] was 0.1 to 100 nM throughout.
